Data set [1] can be described thus: Catalepsy Reversal (neuroleptic-induced catalepsy). It counts as in vivo, rat. The settings on record: for reversal of neuroleptic-induced catalepsy, potency relative to racemic material: compared with racemic BMY 14802; for Catalepsy Reversal ED50: p.o. The source says:
4. Catalepsy Reversal--measure of a drug's ability to reverse neuroleptic-induced catalepsy in the rat.

Data set [2] can be described thus: Catalepsy. It counts as in vivo, rats. The settings on record: for ED50: rat, in vivo, po.
In data set [3] the test system is GABA binding sites. Put plainly: GABA receptor binding. The settings on record: in words. The source says:
(§1) As further indication of the psychotropic activity and specificity of the instant compounds, state of the art in vitro central nervous system receptor binding methodology can be employed. Certain compounds (commonly referred to as ligands) have been identified which preferentially bind to specific high affinity sites in brain tissue dealing with psychotropic activity or potential for side effects. Inhibition of radiolabeled ligand binding to such specific high affinity sites is considered a measure of the compound's ability to affect corresponding central nervous system function or cause side effects in vivo. This principal is employed in the following assays which are given by way of example.

Data set [4] is described as follows: Conditioned Avoidance Response (CAR). Format: in vivo, trained fasted rats. The text has this: 1. Conditioned Avoidance Response (CAR)--measure of a drug's tranquilizing activity as determined by its attenuation of avoidance response to electrical shock in trained fasted rats. cf: Albert, Pharmacologist, 4, 152 (1962); Wu, et al, J. Med. Chem., 12, 876-881 (1969).

Data set [5] relates to apomorphine stereotypy (dopaminergic activity). Kind of data set: Inhibition of Apomorphine-Induced (APO) Stereotypy. Format: in vivo, rats. The source says:
2. Inhibition of Apomorphine-Induced (APO) Stereotype--an assessment of blockade of dopaminergic activity in rats as measured by attentuation of the behavioral syndrome caused by the dopamine agonist, apomorphine. cf. Janssen, et al, Arzneimittel. Forsch., 17, 841 (1966).

In data set [6] the test system is serotonergic binding sites. Kind of data set: Serotonergic receptor binding. The settings on record: in words.
Text: as §1
Peroutka and Snyder, Molec. Pharmacol.,

Data set [7] has as its system α1 receptor. Kind of data set: α1 binding vs. [^3 H]WB4101. The source says:
(§2) As further indication of the psychotropic activity and specificity of the instant compounds, state of the art in vitro central nervous system receptor binding methodology can be employed. […] Inhibition of radiolabeled ligand binding to such specific high affinity sites is considered a measure of the compound's ability to affect corresponding central nervous system function or cause side effects in vivo. This principal is employed in the following assays which are given by way of example.

Data set [8] concerns α2-adrenergic binding sites. Put plainly: α2-adrenergic receptor binding. The settings on record: in words.
Text: as §1
Rosenblatt, et al., Brain Res., 160: 186
(1979); U'Prichard, et al., Science, 199:
197 (1978); U'Prichard, et al., Molec.

The subject of data set [9] is norepinephrine lethality (α1-adrenergic blockade). Kind of data set: Inhibition of Norepinephrine (NE) Lethality. The settings on record: po; read-out: Inhibition of NE Lethality ED50 (alpha-block). It counts as in vivo. The source says: 5. Inhibition of Norepinephrine Lethality--drug inhibition of the lethality of noradrenergic drug norepinephrine indicates α1 -adrenergic blockade.

The subject of data set [10] is opiate binding sites. Kind of data set: Opiate receptor binding. The settings on record: in words.
Text: as §1

Data set [11] concerns the target Muscarinic Cholinergic receptor. Put plainly: Muscarinic cholinergic receptor binding.
Text: as §2
Cholinergic Yamamura, et al., Proc. Natn. Acad. Sci.

The test system of data set [12] is Dopamine receptor (striatal tissue). Kind of data set: Dopamine (DA) receptor binding vs. [^3 H]spiperone.
Text: as §2
Dopamine Burt, et al., Molec. Pharmacol., 12, 800

Where [13] appears, read: in rats; compared with racemic BMY 14802; in words.
[14] abbreviates: Rattus norvegicus, po; read-out: CAR ED50.
Where [15] appears, read: Rattus norvegicus, po; read-out: Inhibition of APO-Stereotypy ED50.

“Also recorded” adds a separate entry of the source. Where two headings read alike, the source gives them in different places.

On to `Cl.OC(CCCN1CCN(c2ncc(F)cn2)CC1)c1ccc(F)cc1` (racemic) [MJ 14802, 4-[4-[5-Fluoro-2-pyrimidinyl]-1-piperazinyl]-1-(4-fluorophenyl)butanol Hydrochloride], for which the ED50 in data set [1] (Rattus norvegicus, po, read-out: Catalepsy Reversal ED50) was 16.9 mg/kg; in data set [2] it was over 100 mg/kg; in data set [4] (Rattus norvegicus, po, read-out: CAR ED50), 26.4 mg/kg; in data set [5] (Rattus norvegicus, po, read-out: Inhibition of APO-Stereotypy ED50) it was 33 mg/kg; in data set [9], over 100 mg/kg. Besides, the “reversal of neuroleptic-induced catalepsy” value in [1] (in words) is listed as “reverses neuroleptic-induced catalepsy”. Besides, in data set [2] (in words), the catalepsy production result is given as “fails to cause catalepsy”. Besides, the “activity at GABA binding sites” value in data set [3] is “essentially inactive”. Further, the “duration of action in the inhibition of the CAR” value in data set [4] (rat, in vivo) was over 7 h. Moreover, the “duration of action in the inhibition of apomorphine stereotypy” value in data set [5] (rat, in vivo) was 4 h. In addition, the “activity at serotonergic binding sites” value in data set [6] is “essentially inactive”. In addition, in [7] (in words), the α1-adrenergic activity entry is “lacks anticholinergic and α1 -adrenergic activities”. Further, the concentration for half-maximal inhibition (IC50) in data set [7] (vs. [^3 H]WB4101) is 520 nM; in [11] it was over 1000 nM; in data set [12] (vs. [^3 H]spiperone, read-out: DA Binding (vs. [^3 H]spip.) IC50) it was 6400 nM. For the same molecule, the “activity at α2-adrenergic binding sites” value in [8] is “essentially inactive”. For the same molecule, in data set [10], the “activity at opiate binding sites” value was “essentially inactive”. Further, in data set [11] (in words, Hydrochloride), the “activity at cholinergic binding sites” value was “essentially inactive; also recorded: lacks anticholinergic”. The dopamine receptor binding result in [12] (in words) is “very weak dopamine receptor binding”.

For the molecule `OC(CCCN1CCN(c2ncc(F)cn2)CC1)c1ccc(F)cc1` (single isomer, unassigned) [(+)-- enantiomer of BMY 14802, (+)--α-(4-Fluorophenyl)-4-(5-fluoro-2-pyrimidinyl)-1-piperazinebutanol Hydrate], the “reversal of neuroleptic-induced catalepsy, potency relative to racemic material” value in [1] (in words) is given as “The converse was true”. Also, in [5] (setting [13]), the “inhibition of apomorphine stereotypy, potency relative to racemic material” value was “The converse was true”.

Regarding `O.OC(CCCN1CCN(c2ncc(F)cn2)CC1)c1ccc(F)cc1` (single isomer, unassigned) [(-)-- enantiomer, (-)-α-(4-Fluorophenyl)-4-(5-fluoro-2-pyrimidinyl)-1-piperazinebutanol Hydrate], the “reversal of neuroleptic-induced catalepsy, potency relative to racemic material” value in data set [1] (in words) is recorded as “less potent”. Moreover, the “inhibition of apomorphine stereotypy, potency relative to racemic material” value in [5] (setting [13]) is “more potent than racemic material”.

As for `CN1CCN(C2=Nc3cc(Cl)ccc3Nc3ccccc32)CC1` [Clozapine, reference compound], the “Catalepsy Reversal ED50” value in [1] is “I”. Further, the 50% effective dose (ED50) is over 200 mg/kg in [2], 24 mg/kg in data set [4] (setting [14]), 49.2 mg/kg in data set [5] (setting [15]) and 3.5 mg/kg in [9].

As to `CSc1ccc2c(c1)N(CCC1CCCCN1C)c1ccccc1S2` (stereo not shown) [Thioridazine, reference compound], the “Catalepsy Reversal ED50” value in data set [1] is reported as “I”. Also, the median effective dose (ED50) in data set [2] came out at 45.2 mg/kg; in [4] (setting [14]), 126 mg/kg; in data set [5] (setting [15]), 280 mg/kg; in data set [9] it was 2.2 mg/kg.

As to `OC(CCCN1CCN(c2ncccn2)CC1)c1ccc(F)cc1` (stereo not shown) [des-fluoro analog of MJ 14802], in data set [4] (rat, in vivo), the “time after which CAR activity is lost” value is “lost after three hours”.

By ED50 is commonly meant the midpoint of the dose-response relation. In general, IC50 refers to the concentration that inhibits the measured activity by half.

(Values after patent US4605655A, “Antipsychotic 1-fluorophenylbutyl-4-(2-pyrimidinyl)piperazine derivatives” (Bristol-Myers Company, priority 1984, dated 1986).)
